According to ChEMBL document CHEMBL4651402, “Screening of ~5500 FDA-approved drugs and clinical candidates for anti-SARS-CoV-2 activity” (2021):

Legend:
SARS-CoV-2 [1] = test: microbe, parasite or virus in culture; format: functional, organism-based, Chlorocebus sabaeus, Vero C1008; conditions: Severe acute respiratory syndrome coronavirus 2, Vero C1008, 48 h
in vitro = conditions: chlorocebus sabaeus, Vero E6 (Vero C1008) cells
SARS-CoV-2 [2] = test: microbe, parasite or virus in culture; conditions: Severe acute respiratory syndrome coronavirus 2, Vero C1008, 48 h

SMILES	IC50 (SARS-CoV-2 [1]; read-out: IC50)	IC50 (SARS-CoV-2 [1]; read-out: pIC50 (converted))	CC50 at 48 h (in vitro; CC50)	CC50 at 48 h (in vitro; pCC50)	IC50 (SARS-CoV-2 [2])	IC50 (SARS-CoV-2 [2]; read-out: pIC50 (converted))
c1ccc(C(O[C@H]2CCCN(CCc3ccc4c(c3)OCO4)C2)c2ccccc2)cc1	87.1 µM	87.1 µM	> 100 µM	> 100 µM	> 100 µM	> 100 µM
CNCC(O)CC12CCC(c3ccccc31)c1ccccc12 (centres undefined) [OXAPROTILINE]	> 100 µM	> 100 µM	28.2 µM	28.2 µM	> 100 µM	> 100 µM
CC(C)(C)NC(=O)[C@@H]1C[C@@H]2CCCC[C@@H]2CN1C[C@@H](O)[C@H](Cc1ccccc1)NC(=O)[C@H](CC(N)=O)NC(=O)c1ccc2ccccc2n1	> 100 µM	> 100 µM	18.2 µM	18.2 µM	> 100 µM	> 100 µM
CC(C)(C)c1ccc(C(O)CCCN2CCC(C(O)(c3ccccc3)c3ccccc3)CC2)cc1 (centres undefined) [TERFENADINE]	> 100 µM	> 100 µM	~5.13 µM	~5.13 µM	> 100 µM	> 100 µM
CC[C@H]1CN2CC[C@H]1C[C@H]2[C@H](O)c1ccnc2ccc(OC)cc12 [HYDROQUININE]	> 25.1 µM	> 25.1 µM	> 25.1 µM	> 25.1 µM	15.5 µM	15.5 µM
CC(=O)[C@@]12OC(C)(c3ccccc3)O[C@@H]1CC1C3CCC4=CC(=O)CCC4(C)C3CCC12C (some centres undefined)	> 12.6 µM	> 12.6 µM	15.5 µM	15.5 µM	> 100 µM	> 100 µM
CCN(CC)CCOc1ccc(-c2nc3cc(Cl)ccc3s2)cc1 [HALETHAZOLE]	> 100 µM	> 100 µM	3.72 µM	3.72 µM	~3.89 µM	~3.89 µM
CN1CCCN(C(c2ccccc2)c2ccc(Cl)cc2)CC1 (centres undefined) [HOMOCHLORCYCLIZINE]	> 25.1 µM	> 25.1 µM	21.1 µM	20.9 µM	> 20 µM	> 20 µM
CN1CCC(CN2c3ccccc3Sc3ccccc32)C1 (centres undefined) [METHDILAZINE]	> 100 µM	> 100 µM	14.8 µM	14.8 µM	16.2 µM	16.2 µM
CC[C@@H]1C(=O)N(C)c2cnc(Nc3ccc(C(=O)N[C@H]4CC[C@H](N5CCN(CC6CC6)CC5)CC4)cc3OC)nc2N1C(C)C [VOLASERTIB]	> 50.1 µM	> 50.1 µM	0.234 µM	0.234 µM	> 50.1 µM	> 50.1 µM
COc1cc(/C=C/C(=O)CC(=O)/C=C/c2ccc(O)c(OC)c2)ccc1O [CURCUMIN]	> 100 µM	> 100 µM	14.8 µM	14.8 µM	> 100 µM	> 100 µM
CC(C)N1CCN(c2ccc(OCC3COC(Cn4cncn4)(c4ccc(Cl)cc4Cl)O3)cc2)CC1 (centres undefined) [TERCONAZOLE]	> 12.6 µM	> 12.6 µM	~10 µM	~10 µM	16.6 µM	16.6 µM
CC(=O)c1ccc2c(c1)N(CCCN1CCC(CCO)CC1)c1ccccc1S2 [PIPERACETAZINE]	> 12.6 µM	> 12.6 µM	12.2 µM	12 µM	16.2 µM	16.2 µM
CC(=O)N1CCN([C@H]2CCN(C(=O)N(C)[C@H](C)c3cc(C(F)(F)F)cc(C(F)(F)F)c3)[C@@H](c3ccc(F)cc3C)C2)CC1 [CASOPITANT]	> 25.1 µM	> 25.1 µM	17.8 µM	17.8 µM	> 25.1 µM	> 25.1 µM
CCCCOc1cc(C(=O)NCCN(CC)CC)c2ccccc2n1 [DIBUCAINE]	~29.5 µM	~29.5 µM	~39.6 µM	~39.8 µM	29.1 µM	28.8 µM
CCC1(CC)C(=O)NCC(C)C1=O (centres undefined) [METHYPRYLON]	> 25.1 µM	> 25.1 µM	> 25.1 µM	> 25.1 µM	18.4 µM	18.2 µM
O=C1c2c(O)cccc2Cc2cccc(O)c21 [ANTHRALIN]	> 100 µM	> 100 µM	> 100 µM	> 100 µM	> 100 µM	> 100 µM
O=C(NC1CN2CCC1CC2)c1cc(Cl)cc2c1OC1CCCCC21 (centres undefined)	> 25.1 µM	> 25.1 µM	21.6 µM	21.4 µM	7.94 µM	7.94 µM
NC(=O)C(c1ccccc1)(c1ccccc1)[C@@H]1CCN(CCc2ccc3c(c2)CCO3)C1 [DARIFENACIN]	> 100 µM	> 100 µM	56.2 µM	56.2 µM	> 25.1 µM	> 25.1 µM
CN1CCC[C@@H](CN2c3ccccc3Sc3ccccc32)C1	> 100 µM	> 100 µM	11.8 µM	11.7 µM	> 20 µM	> 20 µM
Cc1c(CN2CCN(c3cccc(C(F)(F)F)c3)CC2)cc(-c2ccccc2)n1NC(=O)c1ccncc1 [SUDOTERB]	> 100 µM	> 100 µM	~14.3 µM	~14.1 µM	> 100 µM	> 100 µM
Clc1ccc(C(c2ccccc2)N2CCN(C/C=C/c3ccccc3)CC2)cc1 (centres undefined) [CLOCINIZINE]	20.9 µM	20.9 µM	21.9 µM	21.9 µM	> 100 µM	> 100 µM
CCOC1O[C@H]([C@@H](COCc2ccccc2)OCc2ccccc2)[C@H](OCc2ccccc2)[C@H]1O (some centres undefined) [TRIBENOSIDE]	> 50.1 µM	> 50.1 µM	17.4 µM	17.4 µM	> 50.1 µM	> 50.1 µM
O=C(Nc1ccccc1)OCC(CN1CCCCC1)OC(=O)Nc1ccccc1 (centres undefined) [DIPERODON]	> 25.1 µM	> 25.1 µM	> 25.1 µM	> 25.1 µM	15.1 µM	15.1 µM
Cc1cccc(C)c1OCC(=O)N[C@@H](Cc1ccccc1)[C@@H](O)C[C@H](Cc1ccccc1)NC(=O)[C@H](C(C)C)N1CCCNC1=O [LOPINAVIR]	~15.7 µM	~15.5 µM	~33.7 µM	~33.9 µM	22.9 µM	22.9 µM
CCN(CC)CCNC(=O)c1ccc(NS(C)(=O)=O)cc1 [SEMATILIDE]	> 100 µM	> 100 µM	> 100 µM	> 100 µM	3.89 µM	3.89 µM
CC(=O)c1ccc2c(c1)N(CCCN(C)C)c1ccccc1S2 [ACEPROMAZINE]	> 100 µM	> 100 µM	22.4 µM	22.4 µM	> 100 µM	> 100 µM
CC(=O)c1ccc2c(c1)N(CCCN1CCN(CCO)CC1)c1ccccc1S2 [ACETOPHENAZINE]	> 100 µM	> 100 µM	~14.6 µM	~14.5 µM	> 100 µM	> 100 µM
NC(CO)(CO)CCc1ccc(Sc2cccc(OCc3ccccc3)c2)cc1Cl [MOCRAVIMOD]	> 100 µM	> 100 µM	3.06 µM	3.02 µM	3.31 µM	3.31 µM
